Measured values taken from patent US20170166598A1, “HETEROARYL COMPOUNDS FOR KINASE INHIBITION” (ARIAD PHARMACEUTICALS, INC., priority 2014, published 2017).
pIC50: −log10 of the molar value.

Key:
Assay type in all cases: cell-based
[1] = molecular target: T1, human EGFR exon 20 insertion ASV (V769_D770insASV) (Homo sapiens, UniProt P00533, INS769ASV); experiment: Ba/F3-EGFR-Exon20-ASV cell anti-proliferative assay (CellTiter 96 MTS, 72 h); conditions: Ba/F3-EGFR-Exon20-ASV cells
T1 construct: expressed in transfected cells; host or cells: Ba/F3 (murine pro-B) cells transduced with lentivirus from pLVX-IRES puro
In short: (§1)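 Viable-cell readout used absorbance at 490 nm of MTS-derived formazan, 2 h after reagent addition, following 72 h compound treatment at 37 °C, 5% CO2. Cells: puromycin-selected, IL-3-depleted Ba/F3 expressing EGFR exon 20 ASV or NPG; dosing 4-fold series from 10,000 nM.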

[2] = molecular target: T2, human EGFR exon 20 insertion NPG (H773_V774insNPG) (Homo sapiens, UniProt P00533, INS772GNP); experiment: Ba/F3-EGFR-Exon20-NPG cell anti-proliferative assay (CellTiter 96 MTS, 72 h); conditions: Ba/F3-EGFR-Exon20-NPG cells
T2 construct: expressed in transfected cells; host or cells: Ba/F3 (murine pro-B) cells transduced with lentivirus from pLVX-IRES puro
In short: as §1

[3] = molecular target: T3, human EGFR E746-A750 deletion and T790M Mutation (Homo sapiens, UniProt P00533, DEL746-750/T790M); experiment: Ba/F3-EGFR-Del/T790M cell anti-proliferative assay (CellTiter 96 MTS, 72 h); conditions: Ba/F3-EGFR-Del/T790M cells
T3 construct: expressed in transfected cells; host or cells: Ba/F3 (murine pro-B) cells transduced with lentivirus from pLVX-IRES puro
In short: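 Compound exposure: 72 h, 37 °C, 4-fold series topping at 10,000 nM. Target cells are Ba/F3 transduced with EGFR exon 19 deletion plus T790M, selected by puromycin and IL-3 withdrawal. Viable cell number inferred from MTS metabolic conversion, A490 read 2 h after reagent addition.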

[4] = molecular target: T4, Her2 exon 20 YVMA insertion (A775_G776ins YVMA) (Homo sapiens, UniProt P04626, INS775YVMA); experiment: Ba/F3-Her2 Exon20 YVMA cell anti-proliferative assay (CellTiter 96 MTS, 72 h); conditions: Ba/F3-Her2 Exon20 YVMA cells
T4 construct: expressed in transfected cells; host or cells: Ba/F3 (murine pro-B) cells transduced with lentivirus from pLVX-IRES puro
In short: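 Anti-proliferation: compound series (top 10,000 nM, 4-fold steps) was applied to Ba/F3-Her2 Exon20 YVMA cells grown without IL-3 for 72 h. Viability was read colorimetrically (CellTiter 96 Aqueous One, A490, 2 h reagent incubation).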

T3 sequence (P00533 with tags, fused parts or gaps DEL746-750/T790M): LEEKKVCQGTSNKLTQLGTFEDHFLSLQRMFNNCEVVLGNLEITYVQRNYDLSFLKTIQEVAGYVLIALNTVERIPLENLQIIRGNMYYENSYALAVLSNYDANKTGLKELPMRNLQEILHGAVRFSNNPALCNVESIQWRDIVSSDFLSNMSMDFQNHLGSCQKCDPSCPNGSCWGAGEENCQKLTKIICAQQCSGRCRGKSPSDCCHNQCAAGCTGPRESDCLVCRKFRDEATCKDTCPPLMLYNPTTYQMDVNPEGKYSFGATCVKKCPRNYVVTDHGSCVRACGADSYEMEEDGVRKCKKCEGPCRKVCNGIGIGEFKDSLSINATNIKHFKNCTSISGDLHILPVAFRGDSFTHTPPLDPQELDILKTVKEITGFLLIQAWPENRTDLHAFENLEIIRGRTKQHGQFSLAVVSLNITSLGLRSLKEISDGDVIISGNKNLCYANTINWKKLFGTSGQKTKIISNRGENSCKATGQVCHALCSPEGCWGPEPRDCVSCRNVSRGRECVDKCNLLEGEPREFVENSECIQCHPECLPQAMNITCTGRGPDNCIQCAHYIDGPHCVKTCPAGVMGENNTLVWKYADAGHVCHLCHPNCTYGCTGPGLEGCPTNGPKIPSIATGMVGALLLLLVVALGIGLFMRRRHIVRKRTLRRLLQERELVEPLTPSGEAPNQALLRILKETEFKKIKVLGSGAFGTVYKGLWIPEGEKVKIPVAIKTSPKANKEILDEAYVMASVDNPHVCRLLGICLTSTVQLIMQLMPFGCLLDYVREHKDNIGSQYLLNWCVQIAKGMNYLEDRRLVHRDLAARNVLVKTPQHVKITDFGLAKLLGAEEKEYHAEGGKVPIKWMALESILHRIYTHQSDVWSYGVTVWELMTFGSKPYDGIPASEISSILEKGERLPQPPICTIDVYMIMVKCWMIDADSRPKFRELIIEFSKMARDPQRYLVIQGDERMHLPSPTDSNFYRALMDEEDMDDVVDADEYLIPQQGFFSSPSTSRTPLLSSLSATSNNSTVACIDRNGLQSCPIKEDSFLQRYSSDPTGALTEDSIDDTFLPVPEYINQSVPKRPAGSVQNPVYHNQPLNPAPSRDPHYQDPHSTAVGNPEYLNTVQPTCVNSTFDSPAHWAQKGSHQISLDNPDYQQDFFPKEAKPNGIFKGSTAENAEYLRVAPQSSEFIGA
T4 sequence (P04626 with tags, fused parts or gaps INS775YVMA): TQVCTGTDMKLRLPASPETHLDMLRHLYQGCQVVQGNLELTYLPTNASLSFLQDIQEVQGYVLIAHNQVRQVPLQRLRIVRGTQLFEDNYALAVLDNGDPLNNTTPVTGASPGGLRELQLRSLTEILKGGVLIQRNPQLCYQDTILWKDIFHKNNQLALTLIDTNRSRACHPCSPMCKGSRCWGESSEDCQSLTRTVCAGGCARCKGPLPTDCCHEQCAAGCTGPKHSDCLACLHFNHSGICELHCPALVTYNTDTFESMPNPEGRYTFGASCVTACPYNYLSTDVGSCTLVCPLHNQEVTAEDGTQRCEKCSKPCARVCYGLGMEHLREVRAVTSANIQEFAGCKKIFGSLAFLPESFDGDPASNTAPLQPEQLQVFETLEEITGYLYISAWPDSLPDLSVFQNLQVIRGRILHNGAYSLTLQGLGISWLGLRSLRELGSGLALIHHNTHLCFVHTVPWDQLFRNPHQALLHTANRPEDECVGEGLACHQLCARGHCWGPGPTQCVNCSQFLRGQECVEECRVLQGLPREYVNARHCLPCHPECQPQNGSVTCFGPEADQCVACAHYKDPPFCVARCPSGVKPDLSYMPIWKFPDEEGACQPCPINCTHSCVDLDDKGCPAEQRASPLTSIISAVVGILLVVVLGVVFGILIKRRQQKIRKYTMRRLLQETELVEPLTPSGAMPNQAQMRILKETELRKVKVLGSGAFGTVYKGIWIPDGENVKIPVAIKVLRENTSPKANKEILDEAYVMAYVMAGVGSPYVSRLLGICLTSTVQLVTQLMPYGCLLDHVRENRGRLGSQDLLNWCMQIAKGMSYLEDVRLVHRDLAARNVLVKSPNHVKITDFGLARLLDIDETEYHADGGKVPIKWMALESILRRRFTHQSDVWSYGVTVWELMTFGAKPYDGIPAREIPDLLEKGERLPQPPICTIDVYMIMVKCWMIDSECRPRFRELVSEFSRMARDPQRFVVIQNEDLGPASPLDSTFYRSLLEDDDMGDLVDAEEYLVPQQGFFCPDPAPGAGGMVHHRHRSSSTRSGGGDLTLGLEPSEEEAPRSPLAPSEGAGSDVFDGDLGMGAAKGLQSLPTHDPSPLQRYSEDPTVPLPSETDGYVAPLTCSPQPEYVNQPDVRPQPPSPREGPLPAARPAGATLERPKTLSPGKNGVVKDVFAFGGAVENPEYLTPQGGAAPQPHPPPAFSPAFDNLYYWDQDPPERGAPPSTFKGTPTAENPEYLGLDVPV
T2 sequence (P00533 with tags, fused parts or gaps INS772GNP): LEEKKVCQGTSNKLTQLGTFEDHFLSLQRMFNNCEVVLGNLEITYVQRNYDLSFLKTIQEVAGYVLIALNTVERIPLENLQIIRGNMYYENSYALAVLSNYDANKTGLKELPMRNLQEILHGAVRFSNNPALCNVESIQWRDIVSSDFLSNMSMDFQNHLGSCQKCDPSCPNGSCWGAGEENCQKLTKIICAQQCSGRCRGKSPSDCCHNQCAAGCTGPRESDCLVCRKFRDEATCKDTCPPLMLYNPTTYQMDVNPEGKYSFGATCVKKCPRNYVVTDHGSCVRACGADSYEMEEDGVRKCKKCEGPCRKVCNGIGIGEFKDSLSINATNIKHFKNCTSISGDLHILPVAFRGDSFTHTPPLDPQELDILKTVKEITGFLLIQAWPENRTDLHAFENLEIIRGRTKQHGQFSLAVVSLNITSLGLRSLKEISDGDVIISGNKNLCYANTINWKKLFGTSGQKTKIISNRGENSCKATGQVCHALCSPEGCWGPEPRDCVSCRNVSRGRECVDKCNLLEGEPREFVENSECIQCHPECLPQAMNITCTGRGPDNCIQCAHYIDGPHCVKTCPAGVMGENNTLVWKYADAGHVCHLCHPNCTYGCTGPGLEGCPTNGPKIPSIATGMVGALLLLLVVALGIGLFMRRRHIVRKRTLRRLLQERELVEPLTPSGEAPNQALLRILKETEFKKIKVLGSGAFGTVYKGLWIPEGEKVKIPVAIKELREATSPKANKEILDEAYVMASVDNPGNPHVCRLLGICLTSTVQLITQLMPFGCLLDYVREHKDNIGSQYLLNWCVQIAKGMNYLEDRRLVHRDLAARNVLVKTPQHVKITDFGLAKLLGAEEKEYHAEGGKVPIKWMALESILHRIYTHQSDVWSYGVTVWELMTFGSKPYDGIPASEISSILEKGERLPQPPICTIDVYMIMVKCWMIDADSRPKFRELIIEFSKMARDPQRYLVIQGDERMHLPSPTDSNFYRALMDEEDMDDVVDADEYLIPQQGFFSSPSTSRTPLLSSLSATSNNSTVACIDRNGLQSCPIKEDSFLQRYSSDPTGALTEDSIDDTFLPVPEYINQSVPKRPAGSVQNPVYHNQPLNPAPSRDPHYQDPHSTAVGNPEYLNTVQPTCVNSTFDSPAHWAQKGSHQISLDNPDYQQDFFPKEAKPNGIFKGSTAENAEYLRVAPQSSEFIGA
T1 sequence (P00533 with tags, fused parts or gaps INS769ASV): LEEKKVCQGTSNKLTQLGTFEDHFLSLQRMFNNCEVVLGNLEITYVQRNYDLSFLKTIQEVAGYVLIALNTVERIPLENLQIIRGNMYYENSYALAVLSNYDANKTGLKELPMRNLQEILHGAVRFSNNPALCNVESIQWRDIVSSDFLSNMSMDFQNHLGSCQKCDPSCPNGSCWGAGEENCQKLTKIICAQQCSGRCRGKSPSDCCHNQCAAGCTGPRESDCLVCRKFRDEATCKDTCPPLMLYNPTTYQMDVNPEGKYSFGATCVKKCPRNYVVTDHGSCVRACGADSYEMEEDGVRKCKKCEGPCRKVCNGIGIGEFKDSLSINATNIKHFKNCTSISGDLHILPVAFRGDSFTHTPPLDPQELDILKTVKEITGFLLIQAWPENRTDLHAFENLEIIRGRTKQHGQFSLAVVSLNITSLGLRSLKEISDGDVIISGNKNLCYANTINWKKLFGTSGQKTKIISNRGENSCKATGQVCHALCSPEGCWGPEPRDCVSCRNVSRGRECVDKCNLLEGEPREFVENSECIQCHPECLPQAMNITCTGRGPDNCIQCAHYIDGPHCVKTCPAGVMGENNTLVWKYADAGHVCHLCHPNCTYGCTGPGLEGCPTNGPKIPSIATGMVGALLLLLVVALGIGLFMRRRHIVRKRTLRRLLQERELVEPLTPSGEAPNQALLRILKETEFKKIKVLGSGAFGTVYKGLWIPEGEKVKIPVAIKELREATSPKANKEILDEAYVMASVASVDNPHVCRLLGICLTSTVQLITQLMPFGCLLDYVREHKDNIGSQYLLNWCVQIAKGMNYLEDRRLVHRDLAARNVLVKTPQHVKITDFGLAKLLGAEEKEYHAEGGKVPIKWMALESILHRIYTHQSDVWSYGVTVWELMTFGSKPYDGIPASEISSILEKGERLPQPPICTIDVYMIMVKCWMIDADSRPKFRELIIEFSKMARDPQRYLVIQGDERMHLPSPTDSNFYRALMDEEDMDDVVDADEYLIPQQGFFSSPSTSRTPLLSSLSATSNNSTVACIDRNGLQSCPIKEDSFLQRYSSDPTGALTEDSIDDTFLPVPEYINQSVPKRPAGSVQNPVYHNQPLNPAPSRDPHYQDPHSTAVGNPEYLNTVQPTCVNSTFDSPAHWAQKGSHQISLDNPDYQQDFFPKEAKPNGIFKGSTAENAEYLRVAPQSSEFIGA

| pIC50 [1] | pIC50 [2] | pIC50 [4] | SMILES | EGFR exon 19 deletion and exon 20 T790M mutation IC50 [3] |
| --- | --- | --- | --- | --- |
| 6.30 to 7.00 | > 7.00 | 6.30 to 7.00 | C=CC(=O)Nc1cc(Nc2nccc(-c3c(N4CCC(OC)C4)n4c5c(cccc35)CCC4)n2)c(OC)cc1N(C)CCN(C)C (stereo not shown) [Example 90] | A (IC50 value for the indicated mutant below about 100 nM) |
| > 7.00 | > 7.00 | > 7.00 | C=CC(=O)Nc1cc(Nc2ncc(OCC#N)c(-c3cn4c5c(cccc35)CCC4)n2)c(OC)cc1N(C)CCN(C)C [Example 50, N-(5-((5-(cyanomethoxy)-4-(5,6-dihydro-4H-pyrrolo[3,2,1-ij]quinolin-1-yl)pyrimidin-2-yl)amino)-2-((2-(dimethylamino)ethyl)(methyl)amino)-4-methoxyphenyl)acrylamide] | A (IC50 value for the indicated mutant below about 100 nM) |
| > 7.00 | > 7.00 | > 7.00 | C=CC(=O)Nc1cc(Nc2ncc(C(=O)OC)c(-c3nn4c5c(cccc35)OCC4)n2)c(OC)cc1N(C)CCN(C)C [Example 65, Methyl 2-((5-acrylamido-4-((2-(dimethylamino)ethyl)(methyl)amino)-2-methoxyphenyl)amino)-4-(2,3-dihydro-[1,4]oxazino[2,3,4-hi]indazol-6-yl)pyrimidine-5-carboxylate] | A (IC50 value for the indicated mutant below about 100 nM) |
| > 7.00 | > 7.00 | 6.30 to 7.00 | C=CC(=O)Nc1cc(Nc2ncc(OCC(F)F)c(-c3cn4c5c(cccc35)CCC4)n2)c(OC)cc1N(C)CCN(C)C [Example 95] | A (IC50 value for the indicated mutant below about 100 nM) |
| > 7.00 | > 7.00 | > 7.00 | C=CC(=O)Nc1cc(Nc2nccc(-c3c(N4CCC(O)C4)n4c5c(cccc35)CCC4)n2)c(OC)cc1N(C)CCN(C)C (stereo not shown) [Example 61, N-(2-((2-(dimethylamino)ethyl)(methyl)amino)-5-((4-(2-(3-hydroxypyr4rolidin-1-yl)5,6-dihydro-4H-pyrrolo[3,2,1-ij]quinolin-1-yl)pyrimidin-2-yl)amino)-4-methoxyphenyl)acrylamide] | A (IC50 value for the indicated mutant below about 100 nM) |
| > 7.00 | > 7.00 | > 7.00 | C=CC(=O)Nc1cc(Nc2ncc(C(=O)OCC)c(-c3cn4c5c(cccc35)CCC4)n2)c(OC)cc1N(C)CCN(C)C [Example 69, ethyl 2-((5-acrylamido-4-((2-(dimethylamino)ethyl)(methyl)amino)-2-methoxyphenyl)amino)-4-(5,6-dihydro-4H-pyrrolo[3,2,1-ij]quinolin-1-yl)pyrimidine-5-carboxylate] | A (IC50 value for the indicated mutant below about 100 nM) |
| 6.00 to 6.30 | 6.30 to 7.00 | 6.00 to 6.30 | C=CC(=O)Nc1cc(Nc2ncc(C#N)c(-c3cn4c5c(cccc35)N(C)CC4)n2)c(OC)cc1N(C)CCN(C)C [Example 56, N-(5-((5-cyano-4-(1-methyl-2,3-dihydro-1H-pyrrolo[1,2,3-de]quinoxalin-6-yl)pyrimidin-2-yl)amino)-2-((2-(dimethylamino)ethyl)-(methyl)amino)-4-methoxyphenyl)acrylamide] | A (IC50 value for the indicated mutant below about 100 nM) |
| > 7.00 | > 7.00 | > 7.00 | C=CC(=O)Nc1cc(Nc2ncc(-c3cn[nH]c3)c(-c3cn4c5c(cccc35)CCC4)n2)c(OC)cc1N(C)CCN(C)C [Example 85, N-(5-((4-(5,6-dihydro-4H-pyrrolo[3,2,1-ij]quinolin-1-yl)-5-(1H-pyrazol-4-yl)pyrimidin-2-yl)amino)-2-((2-(dimethylamino)ethyl)(methyl)amino)-4-methoxyphenyl)acrylamide] | A (IC50 value for the indicated mutant below about 100 nM) |
| > 7.00 | > 7.00 | > 7.00 | [2H]C([2H])([2H])N(CCN(C)c1cc(OC)c(Nc2ncc(Cl)c(-c3cn4c5c(cccc35)OCC4)n2)cc1NC(=O)C=C)C([2H])([2H])[2H] [Example 7, N-(2-((2-(bis(methyl-d3)amino)ethyl)(methyl)amino)-5-((5-chloro-4-(2,3-dihydro-[1,4]oxazino[2,3,4-hi]indol-6-yl)pyrimidin-2-yl)amino)-4-methoxyphenyl)acrylamide] | A (IC50 value for the indicated mutant below about 100 nM) |
| 6.00 to 6.30 | 6.30 to 7.00 | < 6.00 | COc1cc(F)c(NC(=O)/C=C/CN(C)C)cc1Nc1ncc(Cl)c(-c2cn3c4c(cccc24)OCC3)n1 [Example 82, (E)-N-(5-((5-chloro-4-(2,3-dihydro-[1,4]oxazino[2,3,4-hi]indol-6-yl)pyrimidin-2-yl)amino)-2-fluoro-4-methoxyphenyl)-4-(dimethylamino)but-2-enamide] | A (IC50 value for the indicated mutant below about 100 nM) |
| 6.30 to 7.00 | > 7.00 | < 6.00 | C=CC(=O)Nc1cc(Nc2ncc(-c3ncccn3)c(-c3cn4c5c(cccc35)CCC4)n2)c(OC)cc1N(C)CCN(C)C [Example 108] | B (IC50 value for the indicated mutant between about 100 to about 500 nM) |
| > 7.00 | > 7.00 | 6.30 to 7.00 | C=CC(=O)Nc1cc(Nc2ncc(CCC(C)O)c(-c3cn4c5c(cccc35)CCC4)n2)c(OC)cc1N(C)CCN(C)C (stereo not shown) [Example 32, N-(5-((4-(5,6-dihydro-4H-pyrrolo[3,2,1-ij]quinolin-1-yl)-5-(3-hydroxybutyl)pyrimidin-2-yl)amino)-2-((2-(dimethylamino)ethyl)(methyl)amino)-4-methoxyphenyl)acrylamide] | A (IC50 value for the indicated mutant below about 100 nM) |
| > 7.00 | > 7.00 | 6.30 to 7.00 | C=CC(=O)Nc1cc(Nc2nccc(-c3c(N4CCCC4=O)n4c5c(cccc35)CCC4)n2)c(OC)cc1N(C)CCN(C)C [Example 72, N-(2-((2-(dimethylamino)ethyl)(methyl)amino)-4-methoxy-5-((4-(2-(2-oxopyrrolidin-1-yl)-5,6-dihydro-4H-pyrrolo[3,2,1-ij]quinolin-1-yl)pyrimidin-2-yl)amino)phenyl)acrylamide] | A (IC50 value for the indicated mutant below about 100 nM) |
| 6.30 to 7.00 | 6.30 to 7.00 | < 6.00 | C=CC(=O)Nc1cc(Nc2nccc(-c3c(N4CCN(C)C(=O)C4)n4c5c(cccc35)CCC4)n2)c(OC)cc1N(C)CCN(C)C [Example 94] | C (IC50 value for the indicated mutant between greater than about 500 to about 1 μM) |
| > 7.00 | > 7.00 | 6.30 to 7.00 | C=CC(=O)Nc1cc(Nc2ncc(-c3nccn3C)c(-c3cn4c5c(cccc35)CCC4)n2)c(OC)cc1N(C)CCN(C)C [Example 98] | A (IC50 value for the indicated mutant below about 100 nM) |
| 6.30 to 7.00 | > 7.00 | 6.00 to 6.30 | C=CC(=O)Nc1cc(Nc2nccc(-c3c(-c4ncco4)n4c5c(cccc35)CCC4)n2)c(OC)cc1N(C)CCN(C)C [Example 63, N-(2-((2-(dimethylamino)ethyl)(methyl)amino)-4-methoxy-5-((4-(2-(oxazol-2-yl)-5,6-dihydro-4H-pyrrolo[3,2,1-ij]quinolin-1-yl)pyrimidin-2-yl)amino)phenyl)acrylamide] | A (IC50 value for the indicated mutant below about 100 nM) |
| > 7.00 | > 7.00 | 6.30 to 7.00 | C=CC(=O)Nc1cc(Nc2ncc(SCCO)c(-c3cn4c5c(cccc35)CCC4)n2)c(OC)cc1N(C)CCN(C)C [Example 58, N-(5-((4-(5,6-dihydro-4H-pyrrolo[3,2,1-ij]quinolin-1-yl)-5-((2-hydroxyethyl)thio)pyrimidin-2-yl)amino)-2-((2-(dimethylamino)ethyl)(methyl)amino)-4-methoxyphenyl)acrylamide] | A (IC50 value for the indicated mutant below about 100 nM) |
| < 6.00 | < 6.00 | < 6.00 | C=CC(=O)Nc1cc(Nc2ncc(C(=O)NC)c(-c3nn4c5c(cccc35)OCC4)n2)c(OC)cc1N(C)CCN(C)C [Example 67] | D (IC50 value for the indicated mutant greater than about 1 μM) |
| > 7.00 | > 7.00 | > 7.00 | C=CC(=O)Nc1cc(Nc2ncc(-c3cnn(C)c3C)c(-c3cn4c5c(cccc35)CCC4)n2)c(OC)cc1N(C)CCN(C)C [Example 102] | A (IC50 value for the indicated mutant below about 100 nM) |
